Experiments:
hIL-6 mRNA = assay: Inhibition of hIL-6 mRNA transcription in LPS-stimulated U937 macrophages; assay type: cell-based, human; design: key: Active: Compounds with an IC50 value less than 30 μM were deemed to be active.; Not Active: Compounds with an IC50 value less than 30 μM were deemed to be active; conditions: U937 cells differentiated with PMA, LPS stimulation, 3 h
Experimental: In this example, hIL-6 mRNA in tissue culture cells was quantitated to measure the transcriptional inhibition of hIL-6 when treated with a compound of the present disclosure.
A human leukemic monocyte lymphoma cell line (U937) was plated (3.2×10^4 cells per well) in a 96-well plate in 100 μL RPMI-1640 containing 10% FBS and penicillin/streptomycin, and differentiated into macrophages for 3 days in 60 ng/mL PMA ([…]) at 37° C. in 5% CO2 prior to the addition of the compound of interest. The cells were pretreated for 1 h with the test compound prior to stimulation with 1 ug/mL lipopolysaccharide from Escherichia coli. The cells were incubated at 37° C. for 3 h before the cells were harvested. At time of harvest, the spent media was removed from the cells and the cells were rinsed in 200 μL PBS. Cell lysis solution (70 μL) was added the cells in each well and incubated for 5-10 min at room temperature, to allow for complete cell lysis and detachment. mRNA was then prepared using the “mRNA Catcher PLUS plate” (Invitrogen), according to the protocol supplied. After the last wash, as much wash buffer as possible was aspirated without allowing the wells to dry. Elution buffer (E3, 70 μL) was then added to each well. mRNA was then eluted by incubating the mRNA Catcher PLUS plate with Elution Buffer for 5 min at 68° C. and then immediately placing the plate on ice.
The eluted mRNA isolated was then used in a one-step quantitative real-time PCR reaction, using components of the Ultra Sense Kit together with Applied Biosystems primer-probe mixes. Real-time PCR data was analyzed, normalizing the Ct values for hIL-6 to an internal control, prior to determining the fold induction of each unknown sample, relative to the control.

human AML MV-4-11 cells = assay: Inhibition of cell proliferation in cancer cell lines (CellTiter Aqueous One); assay type: cell-based; design: key: Active: Compounds with an IC50 value less than 30 μM were deemed to be active.; Not Active: Compounds with an IC50 value less than 30 μM were deemed to be active; conditions: 72 h
Experimental: MV4-11 cells: 96-well plates were seeded with 5×10^4 cells per well of exponentially growing human AML MV-4-11 (CRL-9591) cells and immediately treated with two-fold dilutions of test compounds, ranging from 30 μM to 0.2 μM. Triplicate wells were used for each concentration, as well as a media only and three DMSO control wells. The cells and compounds were incubated at 37° C., 5% CO2 for 72 h before adding 20 μL of the CellTiter Aqueous One Solution (Promega) to each well and incubating at 37° C., 5% CO2 for an additional 3-4 h. The absorbance was taken at 490 nm in a spectrophotometer and the percentage of proliferation relative to DMSO-treated cells was calculated after correction from the blank well. IC50 were calculated using the GraphPad Prism software.

c-myc in MV4-11 cells = assay: Inhibition of c-myc expression in cancer cell lines (mRNA, real-time PCR); assay type: cell-based, Human; design: key: Active: Compounds with an IC50 value less than 30 μM were deemed to be active.; Not Active: Compounds with an IC50 value less than 30 μM were deemed to be active; conditions: 3 h
Experimental: MV4-11 cells (2.5×10^4 cells) were plated in 96 well U-bottom plates with test compound or DMSO (0.1%), and incubated for 3 h at 37° C. Cells were then harvested by centrifugation, lysed, and mRNA was isolated using the mRNA catcher plus kit (Invitrogen). Reverse transcription of the mRNA and duplex amplification of the c-myc and cyclophilin cDNAs was performed using the RNA Ultrasense kit (Invitrogen) and a ViiA7 real-time PCR machine (Applied Biosystems). IC50 values were determined from a dose response curve.

[1] = target: T1, Brd4 bromodomain 1 (BRD4(1)) (Homo sapiens, UniProt O60885); assay: Inhibition of tetra-acetylated histone H4 binding to BET bromodomains (TR-FRET); design: key: Active: Compounds with an IC50 value less than 30 μM were deemed to be active.; Not Active: Compounds with an IC50 value less than 30 μM were deemed to be active; conditions: first bromodomain of Brd4, tetra-acetylated histone H4 peptide
T1 construct: made in house; host or cells: E. coli BL21(DE3)
Experimental: Proteins were cloned and overexpressed with a N-terminal 6×His tag, then purified by nickel affinity followed by size exclusion chromatography. Briefly, E. coli BL21(DE3) cells were transformed with a recombinant expression vector encoding N-terminally Nickel affinity tagged bromodomains from Brd2, Brd3, Brd4. Cell cultures were incubated at 37° C. with shaking to the appropriate density and induced overnight with IPTG. The supernatant of lysed cells was loaded onto Ni-IDA column for purification. Eluted protein is pooled, concentrated and further purified by size exclusion chromatography. Fractions representing monomeric protein were pooled, concentrated, aliquoted, and frozen at −80° C. for use in subsequent experiments.
Binding of tetra-acetylated histone H4 and BET bromodomains was confirmed by a Time Resolved Fluorescence Resonance Energy Transfer (TR-FRET) method. N-terminally His-tagged bromodomains (200 nM) and biotinylated tetra-acetylated histone H4 peptide (25-50 nM, Millipore) were incubated in the presence of Europium Cryptate-labeled streptavidin (Cisbio Cat. #610SAKLB) and XL665-labeled monoclonal anti-His antibody (Cisbio Cat. #61HISXLB) in a white 96 well microtiter plate (Greiner). For inhibition assays, serially diluted test compound was added to these reactions in a 0.2% final concentration of DMSO. Final buffer concentrations were 30 mM HEPES pH 7.4, 30 mM NaCl, 0.3 mM CHAPS, 20 mM phosphate pH 7.0, 320 mM KF, 0.08% BSA). After a 2-h incubation at room temperature, the fluorescence by FRET was measured at 665 and 620 nm by a SynergyH4 plate reader (Biotek). The binding inhibitory activity was shown by a decrease in 665 nm fluorescence relative to 620 nm. IC50 values were determined from a dose response curve.

Row | SMILES | IL-6 activity (IC50 < 30 μM) (hIL-6 mRNA) | Cell Proliferation activity (IC50 < 30 μM) (human AML MV-4-11 cells) | c-myc activity (IC50 < 30 μM) (c-myc in MV4-11 cells) | FRET activity BRD4(1) [1] | melting point
1 | COc1cc(OC)c2c(=O)[nH]c(-c3ncccc3NC3CCN(C(C)=O)CC3)nc2c1 [Example 37, 2-(3-((1-Acetylpiperidin-4-yl)amino)pyridine-2-yl)-5,7-dimethoxyquinazolin-4(3H)-one] | Active | Active | Active | Active | 
2 | COc1cc(OC)c2c(=O)[nH]c(-c3ncccc3NC3CCN(C(=O)C(C)(C)C)CC3)nc2c1 [Example 48, 5,7-Dimethoxy-2-(3-((1-pivaloylpiperidin-4-yl)amino)pyridin-2-yl)quinazolin-4(3H)-one] | Active | Active | Active | Active | 209 to 210 °C
3 | COc1ccc(-c2nc3cc(OC)cc(OC)c3c(=O)[nH]2)c(NC2CCN(C(C)C)CC2)c1 [Example 3, 2-(2-((1-isopropylpiperidin-4-yl)amino)-4-methoxyphenyl)-5,7-dimethoxyquinazolin-4(3H)-one] | Active | Active | Active | Active | 248 to 250 °C
4 | COc1cc(OC)c2c(=O)[nH]c(-c3ncc(OCCNC4CCN(C(C)C)CC4)cc3NC3CCN(C(C)C)CC3)nc2c1 [Example 50, 2-(3-((1-Isopropylpiperidin-4-yl)amino)-5-(2-((1-isopropylpiperidin-4-yl)amino)ethoxy)pyridin-2-yl)-5,7-dimethoxyquinazolin-4(3H)-one] | Active |  |  | Active | 
5 | COc1ccc(-c2nc3cc(OC)cc(OC)c3c(=O)[nH]2)c(NC2CCN(C(C)=O)CC2)c1 [Example 39, 2-(2-((1-Acetylpiperidin-4-yl)amino)-4-methoxyphenyl)-5,7-dimethoxyquinazolin-4(3H)-one] | Active | Active | Active | Active | 
6 | COc1ccc(-c2nc3cc(OC)cc(OC)c3c(=O)[nH]2)c(N[C@H]2CC[C@H](C(C)(C)O)CC2)c1 [Example 31, 2-(2-((trans-4-(2-Hydroxypropan-2-yl)cyclohexyl)amino)-4-methoxyphenyl)-5,7-dimethoxyquinazolin-4(3H)-one] | Active | Not Active |  | Active | 253 °C (dec.)
7 | COc1ccc(-c2nc3cc(OC)cc(OC)c3c(=O)[nH]2)c(NCCNC(C)C)c1 [Example 8, 2-(2-((2-(Isopropylamino)ethyl)amino)-4-methoxyphenyl)-5,7-dimethoxyquinazolin-4(3H)-one] | Active | Active | Active | Active | 262 to 264 °C
8 | COc1cc(OC)c2c(=O)[nH]c(-c3ncccc3NC3CCN(C(=O)C(F)(F)F)CC3)nc2c1 [Example 46, 5,7-Dimethoxy-2-(3-((1-(2,2,2-trifluoroacetyl)piperidin-4-yl)amino)pyridin-2-yl)quinazolin-4(3H)-one] | Active | Active | Active | Active | 218 to 219 °C
9 | COc1cc(OC)c2c(=O)[nH]c(-c3ncccc3NCCNC(=O)C(C)C)nc2c1 [Example 56, N-(2-((2-(5,7-Dimethoxy-4-oxo-3,4-dihydroquinazolin-2-yl)pyridin-3-yl)amino)ethyl)isobutyramide] | Active | Active | Active | Active | 235 to 237 °C
10 | COc1ccc(-c2nc3cc(OC)cc(OC)c3c(=O)[nH]2)c(NCCCN2CCNCC2)c1 [Example 28, 5,7-Dimethoxy-2-(4-methoxy-2-[3-(piperazin-1-yl)propylamino]phenyl)quinazolin-4(3H)-one] | Active | Active | Active | Active | 225 to 228 °C
11 | CCNC(=O)N1CCC(Nc2cccnc2-c2nc3cc(OC)cc(OC)c3c(=O)[nH]2)CC1 [Example 52, 4-((2-(5,7-dimethoxy-4-oxo-3,4-dihydroquinazolin-2-yl)pyridin-3-yl)amino)-N-ethylpiperidine-1-carboxamide] | Active | Not Active | Active | Active | 151 to 152 °C
12 | COc1cc(OC)c2c(=O)[nH]c(-c3ncccc3NC3CCN(C(=O)NC(C)C)CC3)nc2c1 [Example 47, 4-((2-(5,7-Dimethoxy-4-oxo-3,4-dihydroquinazolin-2-yl)pyridin-3-yl)amino)-N-isopropylpiperidine-1-carboxamide] | Active | Not Active |  | Active | 198 to 199 °C
13 | COc1ccc(NC2CCN(C(C)C)CC2)c(-c2nc3cc(OC)cc(OC)c3c(=O)[nH]2)c1 [Example 26, 2-(2-((1-Isopropylpiperidin-4-yl)amino)-5-methoxyphenyl)-5,7-dimethoxyquinazolin-4(3H)-one] | Active | Not Active | Active | Active | 
14 | COc1cnc(-c2nc3cc(OC)cc(OC)c3c(=O)[nH]2)c(N[C@H]2CC[C@@H](C(=O)NC(C)C)CC2)c1 [Example 45, cis-4-((2-(5,7-Dimethoxy-4-oxo-3,4-dihydroquinazolin-2-yl)-5-methoxypyridin-3-yl)amino)-N-isopropylcyclohexane-1-carboxamide] | Active | Not Active |  | Active | 
